According to patent US11708348B2, “Protease inhibitors for treatment of coronavirus infections” (The Scripps Research Institute, priority 2021, dated 2023):
Where two headings read alike, the source gives them in different places.

System: SARS-CoV-2 strain USA-WA1/2020
Assay: microbe, parasite or virus in culture
Assay type: cell-based
Settings: Severe acute respiratory syndrome coronavirus 2, HeLa-ACE2, 24 h, read-out: EC50, uM (Hela)
[1] = HeLa-ACE2 cells, SARS-CoV-2 infection, 24 h
[2] = HeLa-ACE2 cells, SARS-CoV-2 infection, 24 h, class symbols

Row | Structure (SMILES) | EC50 [1] [µM] | also measured
1 | O=C(Nc1ccccc1F)C(=O)N1CCC[C@@H](C(=O)N[C@@H](C[C@@H]2CCNC2=O)C(=O)COc2c(F)c(F)cc(F)c2F)C1 [Compound 95, (R)-1-(2-((2-fluorophenyl)amino)-2-oxoacetyl)-N-((S)-3-oxo-1-((S)-2-oxopyrrolidin-3-yl)-4-(2,3,5,6-tetrafluorophenoxy)butan-2-yl)piperidine-3-carboxamide] | – | EC50 (HeLa-ACE2 cells, SARS-CoV-2 infection, 24 h, cells given as a bound): > 1 µM
2 | O=C1NCC[C@H]1C[C@H](NC(=O)[C@@H]1CC2(CC2)CN1C(=O)[C@@H](O)CC(C(F)(F)F)C(F)(F)F)C(=O)COC(F)(F)F [Compound 745, (S)-N-((S)-3-oxo-1-((S)-2-oxopyrrolidin-3-yl)-4-(trifluoromethoxy)butan-2-yl)-5-((S)-5,5,5-trifluoro-2-hydroxy-4-(trifluoromethyl)pentanoyl)-5-azaspiro[2.4]heptane-6-carboxamide] | < 0.05 | –
3 | O=C1NCC[C@H]1C[C@H](NC(=O)[C@@H]1CC2(CC2)CN1C(=O)COCC(F)(F)F)C(=O)COC(F)(F)F [Compound 673, (S)-N-((S)-3-oxo-1-((S)-2-oxopyrrolidin-3-yl)-4-(trifluoromethoxy)butan-2-yl)-5-(2-(2,2,2-trifluoroethoxy)acetyl)-5-azaspiro[2.4]heptane-6-carboxamide] | 0.05 to 0.2 | –
4 | O=C1NCC[C@H]1C[C@H](NC(=O)[C@@H]1[C@H]2CCC[C@H]2CN1C(=O)[C@H](O)CC1CC1)C(=O)COC(F)(F)F [Compound 393, (1S,3aR,6aS)-2-((R)-3-cyclopropyl-2-hydroxypropanoyl)-N-((S)-3-oxo-1-((S)-2-oxopyrrolidin-3-yl)-4-(trifluoromethoxy)butan-2-yl)octahydrocyclo-penta[c]pyrrole-1-carboxamide] | – | EC50 [2]: < 0.05 µM
5 | O=C(N[C@@H](CC1CC1)C(=O)N[C@@H](C[C@@H]1CCNC1=O)C(=O)COC(F)(F)F)c1ncc(-c2ccccc2)[nH]1 [Compound 223, N-((S)-3-cyclopropyl-1-oxo-1-(((S)-3-oxo-1-((S)-2-oxopyrrolidin-3-yl)-4-(trifluoromethoxy)butan-2-yl)amino)propan-2-yl)-5-phenyl-1H-imidazole-2-carboxamide] | – | EC50 [2]: < 0.05 µM
6 | CC(C)(C)C[C@H](NC(=O)c1cc(C(F)F)on1)C(=O)N[C@@H](C[C@@H]1CCNC1=O)C(=O)COC(F)(F)F [Compound 532, 5-(difluoromethyl)-N-((S)-4,4-dimethyl-1-oxo-1-(((S)-3-oxo-1-((S)-2-oxopyrrolidin-3-yl)-4-(trifluoromethoxy)butan-2-yl)amino)pentan-2-yl)isoxazole-3-carboxamide] | < 0.05 | –
7 | Cc1ccccc1N(C)C(=O)C(=O)N[C@@H](CC(C)C)C(=O)N[C@@H](C[C@@H]1CCNC1=O)C(=O)COc1c(F)c(F)cc(F)c1F [Compound 107, N1-methyl-N2-((S)-4-methyl-1-oxo-1-(((S)-3-oxo-1-((S)-2-oxopyrrolidin-3-yl)-4-(2,3,5,6-tetrafluorophenoxy)butan-2-yl)amino)pentan-2-yl)-N1-(o-tolyl)oxalamide] | – | EC50 [2]: 0.2 to 0.5 µM
8 | CC(C)(O)C(=O)N1CC2(CC2)C[C@H]1C(=O)N[C@@H](C[C@@H]1CCNC1=O)C(=O)COC(F)(F)F [Compound 354, (S)-5-(2-hydroxy-2-methylpropanoyl)-N-((S)-3-oxo-1-((S)-2-oxopyrrolidin-3-yl)-4-(trifluoromethoxy)butan-2-yl)-5-azaspiro[2.4]-heptane-6-carboxamide] | – | EC50 [2]: 0.05 to 0.2 µM
9 | CC(C)C[C@@H](O)C(=O)N1C[C@H](c2ccccc2)C[C@H]1C(=O)N[C@@H](C[C@@H]1CCNC1=O)C(=O)COC(F)(F)F [Compound 761, (2S,4S)-1-((R)-2-hydroxy-4-methylpentanoyl)-N-((S)-3-oxo-1-((S)-2-oxopyrrolidin-3-yl)-4-(trifluoromethoxy)butan-2-yl)-4-phenylpyrrolidine-2-carboxamide] | < 0.05 | –
10 | CC(C)C[C@H](NC(=O)c1ncon1)C(=O)N[C@@H](C[C@@H]1CCNC1=O)C(=O)COC(F)(F)F [Compound 580, N-((S)-4-methyl-1-oxo-1-(((S)-3-oxo-1-((S)-2-oxopyrrolidin-3-yl)-4-(trifluoromethoxy)butan-2-yl)amino)pentan-2-yl)-1,2,4-oxadiazole-3-carboxamide] | 0.2 to 0.5 | –
11 | CC(C)(NC(=O)C(=O)N1C[C@@H]2CCC[C@@H]2[C@H]1C(=O)N[C@@H](C[C@@H]1CCNC1=O)C(=O)COC(F)(F)F)C(F)F [Compound 554, (1S,3aR,6aS)-2-(2-((1,1-difluoro-2-methylpropan-2-yl)amino)-2-oxoacetyl)-N-((S)-3-oxo-1-((S)-2-oxopyrrolidin-3-yl)-4-(trifluoromethoxy)butan-2-yl)octahydro-cyclopenta[c]pyrrole-1-carboxamide] | 0.05 to 0.2 | –
12 | CSCC[C@H](NC(=O)[C@H](CC(C)C)NC(=O)C(=O)Nc1ccccc1F)C(=O)COc1c(F)c(F)cc(F)c1F [Compound 654, N1-(2-fluorophenyl)-N2-((S)-4-methyl-1-(((S)-5-(methylthio)-2-oxo-1-(2,3,5,6-tetrafluorophenoxy)pentan-3-yl)amino)-1-oxopentan-2-yl)oxalamide] | 0.5 to 1 | –
13 | O=C1NCC[C@H]1C[C@H](NC(=O)[C@@H]1CC2(CC2)CN1C(=O)C1CCC(F)(F)CC1)C(=O)COC(F)(F)F [Compound 661, (S)-5-(4,4-difluorocyclohexane-1-carbonyl)-N-((S)-3-oxo-1-((S)-2-oxopyrrolidin-3-yl)-4-(trifluoromethoxy)butan-2-yl)-5-azaspiro[2.4]heptane-6-carboxamide] | 0.05 to 0.2 | –
14 | CC1(C)[C@@H]2[C@@H](C(=O)N[C@@H](C[C@@H]3CCNC3=O)C(=O)COC(F)(F)F)N(C(=O)C(CN3CCC(F)(F)CC3)NC(=O)C(F)(F)F)C[C@@H]21 (stereo partly drawn) [Compound 442, (1R,2S, 5S)-3-(3-(4,4-difluoropiperidin-1-yl)-2-(2,2,2-trifluoroacetamido)-propanoyl)-6,6-dimethyl-N-((S)-3-oxo-1-((S)-2-oxopyrrolidin-3-yl)-4-(trifluoromethoxy)butan-2-yl)-3-azabicyclo[3.1.0]-hexane-2-carboxamide] | – | EC50: 0.2 to 0.5 µM
15 | CC(C)C[C@H](NC(=O)Nc1ccccc1F)C(=O)N[C@@H](C[C@@H]1CCNC1=O)C(=O)COc1c(F)c(F)cc(F)c1F [Compound 84, (S)-2-(3-(2-fluorophenyl)ureido)-4-methyl-N-((S)-3-oxo-1-((S)-2-oxopyrrolidin-3-yl)-4-(2,3,5,6-tetrafluorophenoxy)butan-2-yl)pentanamide] | – | EC50 [2]: 0.05 to 0.2 µM
16 | CC(C)(C)NC(=O)C(=O)N1CC2(CC2)C[C@H]1C(=O)N[C@@H](C[C@@H]1CCNC1=O)C(=O)COC(F)(F)F [Compound 502, (S)-5-(2-(tert-butylamino)-2-oxoacetyl)-N-((S)-3-oxo-1-((S)-2-oxopyrrolidin-3-yl)-4-(trifluoromethoxy)butan-2-yl)-5-azaspiro[2.4]-heptane-6-carboxamide] | < 0.05 | –
17 | CC(C)(C)[C@H](NC(=O)OC1CC1)C(=O)N1C[C@H]2[C@@H]([C@H]1C(=O)N[C@@H](C[C@@H]1CCNC1=O)C(=O)COC(F)(F)F)C2(C)C [Compound 447, cyclopropyl ((S)-1-((1R,2S,5S)-6,6-dimethyl-2-(((S)-3-oxo-1-((S)-2-oxopyrrolidin-3-yl)-4-(trifluoromethoxy)butan-2-yl)carbamoyl)-3-azabicyclo[3.1.0]-hexan-3-yl)-3,3-dimethyl-1-oxobutan-2-yl)carbamate] | < 0.05 | –
